For assay [1], the target named is T1, human recombinant dopamine D2L receptor (Homo sapiens, UniProt P14416).
T1 construct: expressed in transfected cells; host or cells: CHO cells
Kind of assay: Dopamine D2L radioligand binding ([3H]Spiperone). As to conditions: percent inhibition of specific binding. How it is done: Non-specific binding was estimated in the presence of 10 μM Haloperidol. Receptor proteins were filtered and washed, the filters were then counted to determine [^3H]Spiperone specifically bound. […] Biochemical assay results are presented as the percent inhibition of specific binding in Table 6.

Assay [2] concerns the target T2, human recombinant histamine H1 receptor (Homo sapiens, UniProt P35367).
T2 construct: expressed in transfected cells; host or cells: CHO cells
Kind of assay: Histamine H1 radioligand binding ([3H]Pyrilamine). As to conditions: read-out: Inhibition of ligand binding, Hist. H1. In a few lines: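 Receptor expressed in CHO cells, assayed in 50 mM Tris-HCl pH 7.4 with 2 mM MgCl2, 100 mM NaCl, 250 mM sucrose. Compounds tested at 1 μM in 1% DMSO; non-specific binding set with 1 μM pyrilamine. Filter-bound radioactivity counted; values are percent inhibition of specific binding.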

The target of assay [3] is T3, human recombinant adrenergic α2B receptor (Homo sapiens, UniProt P18089).
T3 construct: expressed in transfected cells; host or cells: CHO-K1 cells
T3 sequence (P18089 1-450): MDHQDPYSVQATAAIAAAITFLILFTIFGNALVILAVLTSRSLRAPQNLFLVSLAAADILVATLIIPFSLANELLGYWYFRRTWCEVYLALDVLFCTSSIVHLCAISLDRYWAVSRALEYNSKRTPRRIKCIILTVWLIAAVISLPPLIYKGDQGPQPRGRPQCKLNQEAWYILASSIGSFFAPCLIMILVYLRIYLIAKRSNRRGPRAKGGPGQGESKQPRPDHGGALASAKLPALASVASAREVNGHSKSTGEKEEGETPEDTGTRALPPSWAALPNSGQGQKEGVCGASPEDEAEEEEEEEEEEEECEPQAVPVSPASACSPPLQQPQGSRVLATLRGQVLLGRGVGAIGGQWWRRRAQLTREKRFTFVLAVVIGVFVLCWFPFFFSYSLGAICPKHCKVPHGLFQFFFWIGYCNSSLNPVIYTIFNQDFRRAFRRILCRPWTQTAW
Kind of assay: Adrenergic α2B radioligand binding ([3H]Rauwolscine). On the set-up: Inhibition of ligand binding, Adren. alpha2B: concentration or dose not given beside the values. As to conditions: percent inhibition of specific binding. In a few lines: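 Membranes from CHO-K1 cells expressing the receptor, in 50 mM Tris-HCl pH 7.4 with 12.5 mM MgCl2, 1 mM EDTA, 0.2% BSA, incubated with compounds and 2.5 nM [3H]Rauwolscine for 60 minutes at 25 °C.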

For assay [4], the target named is T4, human recombinant adrenergic α2A receptor (Homo sapiens, UniProt P08913).
T4 construct: expressed in transfected cells; host or cells: insect Sf9 cells
T4 sequence (P08913 1-465): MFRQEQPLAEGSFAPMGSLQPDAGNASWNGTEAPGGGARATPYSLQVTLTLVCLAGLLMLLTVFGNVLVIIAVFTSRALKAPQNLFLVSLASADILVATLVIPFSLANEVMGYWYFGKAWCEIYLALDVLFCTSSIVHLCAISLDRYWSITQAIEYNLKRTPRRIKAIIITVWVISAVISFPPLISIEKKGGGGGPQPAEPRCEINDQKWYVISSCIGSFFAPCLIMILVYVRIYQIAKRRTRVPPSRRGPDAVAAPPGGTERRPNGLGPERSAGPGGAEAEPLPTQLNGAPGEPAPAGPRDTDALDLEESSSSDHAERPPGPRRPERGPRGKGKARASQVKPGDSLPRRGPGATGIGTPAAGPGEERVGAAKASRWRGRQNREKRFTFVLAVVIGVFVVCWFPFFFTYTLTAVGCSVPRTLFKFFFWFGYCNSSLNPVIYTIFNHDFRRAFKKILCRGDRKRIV
Put plainly: Adrenergic α2A radioligand binding ([3H]MK-912). As to conditions: percent inhibition of specific binding. Also on record: Inhibition of ligand binding, Adren. alpha2A: concentration or dose not given beside the values. In short, it runs like this:
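Membranes from Sf9 cells expressing the receptor were incubated with 1 nM [3H]MK-912 for 60 minutes at 25° C in 50 mM Tris-HCl pH 7.4, 12.5 mM MgCl2, 2 mM EDTA. 10 μM WB-4101 defined non-specific binding. Values are percent inhibition of specific bound radioactivity after filtration.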

The record followed here is patent US9096591B2, “Tetracyclic compounds” (Medivation Technologies, Inc., priority 2007, dated 2015).

T1 sequence (P14416 whole entry): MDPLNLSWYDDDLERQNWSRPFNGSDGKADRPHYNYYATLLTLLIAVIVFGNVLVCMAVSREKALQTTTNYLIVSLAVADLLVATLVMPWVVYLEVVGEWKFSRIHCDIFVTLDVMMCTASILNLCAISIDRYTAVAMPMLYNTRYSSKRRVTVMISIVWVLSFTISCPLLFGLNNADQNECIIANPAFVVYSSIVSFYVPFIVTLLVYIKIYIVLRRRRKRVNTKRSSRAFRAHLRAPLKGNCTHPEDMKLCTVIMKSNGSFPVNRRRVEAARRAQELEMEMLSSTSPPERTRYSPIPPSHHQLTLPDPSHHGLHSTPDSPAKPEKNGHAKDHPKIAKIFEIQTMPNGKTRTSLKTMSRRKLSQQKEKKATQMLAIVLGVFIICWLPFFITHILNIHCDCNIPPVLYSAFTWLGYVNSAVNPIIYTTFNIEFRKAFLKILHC
T2 sequence (P35367 whole entry): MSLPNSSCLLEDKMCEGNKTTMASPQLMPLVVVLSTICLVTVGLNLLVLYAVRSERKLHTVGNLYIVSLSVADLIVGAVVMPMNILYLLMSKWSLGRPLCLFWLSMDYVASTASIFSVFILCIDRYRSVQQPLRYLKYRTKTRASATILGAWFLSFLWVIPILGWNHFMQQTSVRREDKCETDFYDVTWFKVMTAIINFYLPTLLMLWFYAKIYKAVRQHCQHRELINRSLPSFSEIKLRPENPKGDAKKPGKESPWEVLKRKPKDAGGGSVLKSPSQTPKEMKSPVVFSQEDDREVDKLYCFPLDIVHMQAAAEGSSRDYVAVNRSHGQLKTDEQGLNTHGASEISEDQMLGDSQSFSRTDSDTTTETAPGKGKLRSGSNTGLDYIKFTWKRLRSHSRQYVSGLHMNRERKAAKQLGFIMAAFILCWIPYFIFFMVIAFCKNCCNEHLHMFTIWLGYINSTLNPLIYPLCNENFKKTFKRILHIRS

Consider `Cc1ccc2c(c1)c1c(n2CCc2ccc(C)nc2)CCN(C)C1` [Dimebon, dimebon, reference compound], for which the “Inhibition of ligand binding, Dop. D2L” value in assay [1] came to 41%. For the same compound, the inhibition at 1 µM in assay [2] is 94%. Besides, in assay [3], the “Inhibition of ligand binding, Adren. alpha2B” value is 112%. Further, in assay [4], the “Inhibition of ligand binding, Adren. alpha2A” value is listed as 91%.

Regarding `CN1CCc2c(c3cc(Cl)ccc3n2CCc2ccc(C(F)(F)F)nc2)C1` [Compound 250], the “Inhibition of ligand binding, Dop. D2L” value in assay [1] is given as 21%. Besides, the inhibition at 1 µM in assay [2] was determined as 102%. Moreover, the “Inhibition of ligand binding, Adren. alpha2B” value in assay [3] is given as 108%. Also, the “Inhibition of ligand binding, Adren. alpha2A” value in assay [4] came to 91%.
